Laboratory results: article PMC11758220, “Identification of a Privileged Scaffold for Inhibition of Sterol Transport Proteins through the Synthesis and Ring Distortion of Diverse, Pseudo-Natural Products” (ACS Central Science, 2025)
pIC50: −log10 of the molar value.

Key:
[1] = target: T1, ORP1 (Homo sapiens, UniProt Q9BXW6); test: Fluorescence polarisation (FP) competition with NBD-cholesterol, ORP1; format: binding; conditions: for pIC50: mean of three experiments run in technical duplicates; for inhibition at 10 µM / ORP1 (FP) inhibition: single dose, Dose = 10 µM
T1 construct: ORP1(534-950); host or cells: E. coli BL21(DE3)
T1 sequence (Q9BXW6 534-950): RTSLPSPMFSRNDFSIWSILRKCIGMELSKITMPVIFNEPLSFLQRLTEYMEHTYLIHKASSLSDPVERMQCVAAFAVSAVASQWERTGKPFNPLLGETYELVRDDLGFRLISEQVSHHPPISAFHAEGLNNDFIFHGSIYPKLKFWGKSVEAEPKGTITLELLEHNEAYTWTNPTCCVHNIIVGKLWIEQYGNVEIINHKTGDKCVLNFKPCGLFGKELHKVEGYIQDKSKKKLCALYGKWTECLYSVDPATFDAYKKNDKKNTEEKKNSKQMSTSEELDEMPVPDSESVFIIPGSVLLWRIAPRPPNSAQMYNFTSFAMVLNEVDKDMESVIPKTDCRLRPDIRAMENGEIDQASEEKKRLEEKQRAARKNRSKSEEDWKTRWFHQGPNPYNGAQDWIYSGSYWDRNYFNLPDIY
From the text: Protein expression constructs
Human ASTER domains of Aster-A(359-547), -B(364-552) and -C(318-504) were subcloned into a pGEX-6p-2rbs vector, thus introducing the cloning artifact ‘GPLGS’.3 The pGEX-6P-1-GST-OSBP(377- […]
a gift from James H. Hurley (University of California).4 The pHIS_2His6_Thrombin_STARD4(2-205;C75S) plasmid was a gift from Young Jun Im (Chonnam National University).5 STARD5A was a gift from Nicola Burgess-Brown (Addgene plasmid #42392; http://n2t.net/addgene:42392; […]
Protein expression and purification […]
vectors including an N-terminal PreScission-cleavable glutathione S-transferase (GST)-tag were expressed in Escherichia coli (E. coli) OverExpress C41 in Terrific Broth (TB) medium for 16 h at 18 °C after the induction with 0.1 mM isopropyl β-D-1-thiogalactopyranoside (IPTG). Cells were harvested at 3500 × g for 15 minutes and lysed by sonication in buffer containing 50 mM HEPES pH 7.5, 300 mM NaCl, 10 %v/v glycerol, 5 mM dithiothreitol (DTT), 0.1 %v/v Triton X-100 and protease inhibitor mix HP plus (Serva). The lysate was purified by affinity chromatography on a GSTrap FF column (Cytiva) using an ÄKTA Start (Cytiva) in buffer containing 50 mM HEPES pH 7.5, 300 mM NaCl, 10 %v/v glycerol, 5 mM DTT and 0.01 %v/v Triton X-100. The GST-tag was cleaved overnight on the column at 4 °C. The Aster sterol binding domains were further purified by size-exclusion chromatography (SEC) on a HiLoad 16/600 Superdex 75 pg (Cytiva) in buffer containing 20 mM HEPES pH 7.5, 300 mM NaCl, 10 %v/v […]
STARD5(6-213) harboring an N-terminal His6-Tag were expressed in E. coli BL21(DE3) in Luria-Bertani Broth (LB) medium for approximately 16 h at 18 °C after induction with 0.15 mM IPTG. Cells were harvested at 3500 × g for 15 minutes and lysed by sonication in buffer containing 50 mM HEPES pH 7.5, 150 mM NaCl, 5 %v/v glycerol, 5 mM DTT, 0.1 %v/v Triton X -100 and ethylenediaminetetraacetic acid (EDTA)-free protease inhibitor cocktail (Sigma-Aldrich). The cleared lysate was purified by affinity chromatography on a Ni-NTA Superflow Cartridge (Qiagen) using an ÄKTA Start (Cytiva) in buffer containing 50 mM HEPES pH 7.5, 150 mM NaCl, 5 %v/v glycerol, 5 mM DTT. START domains were eluted by using elution buffer containing 50 mM HEPES pH 7.5, 150 mM NaCl, 5 %v/v glycerol, 5 mM DTT and 500 mM imidazole. Proteins were further purified by SEC on a HiLoad 16/600 Superdex 75 pg (Cytiva) in buffer containing 20 mM HEPES pH 7.5, 150 mM NaCl, 5 %v/v glycerol and 2 mM DTT.
The ORP domain of human OSBP(377-807) in the pGEX-6p-1 vector with an N-terminal PreScission-cleavable GST-tag was expressed in E. coli OverExpress C41 in LB medium for 16 h at 18 °C after induction with 0.1 mM IPTG. Cells were harvested at 3500 × g for 15 minutes and lysed by sonication in buffer containing 20 mM HEPES pH 7.5, 300 mM NaCl, 10 %v/v glycerol, 5 mM DTT, 0.1 %v/v Triton X-100 and EDTA-free protease inhibitor cocktail (Sigma-Aldrich). The cleared lysate was purified by affinity chromatography on a GSTrap HF column (Cytiva) using an ÄKTA Start (Cytiva) in buffer containing 20 mM HEPES pH 7.5, 300 mM NaCl, 10 %v/v glycerol, 5 mM DTT. OSBP(377 -807) was eluted by using elution buffer containing 20 mM HEPES pH 7.5, 300 mM NaCl, 10 %v/v glycerol, 5 mM DTT and 10 mM reduced glutathione. Proteins were further purified by SEC on a HiLoad 16/600 Superdex 75 pg (Cytiva) using an ÄKTA Explorer (Cytiva) in buffer containing 20 mM HEPES pH 7.5, 150 mM NaCl, 10 %v/v glycerol and 2 mM DTT.
The ORP domains of human ORP1(534-950) in pET24b(+) and ORP2(49-480) in the pET24b(+) vector including an N-terminal His6-Tag were expressed in E. coli BL21(DE3) in TB medium for approximately 16 h at 18 °C after induction with 0.1 mM IPTG. Cells were collected at 3500 × g for 15 minutes and lysed by sonification in buffer containing 10 mM Tris-HCl pH 8, 300 mM NaCl, 5 % glycerol, 2 mM DTT, 0.1 % Triton X-100 and EDTA-free protease inhibitor cocktail (Sigma-Aldrich). The cleared […]

[2] = target: T2, STARD1 (Homo sapiens, UniProt P49675); test: Fluorescence polarisation (FP) competition with NBD-cholesterol, STARD1; format: binding; conditions: for pIC50: mean of three experiments run in technical duplicates; for inhibition at 10 µM / STARD1 (FP) inhibition: single dose, Dose = 10 µM
T2 construct: STARD1(66-284); made in house; host or cells: E. coli BL21(DE3)
T2 sequence (P49675 66-284): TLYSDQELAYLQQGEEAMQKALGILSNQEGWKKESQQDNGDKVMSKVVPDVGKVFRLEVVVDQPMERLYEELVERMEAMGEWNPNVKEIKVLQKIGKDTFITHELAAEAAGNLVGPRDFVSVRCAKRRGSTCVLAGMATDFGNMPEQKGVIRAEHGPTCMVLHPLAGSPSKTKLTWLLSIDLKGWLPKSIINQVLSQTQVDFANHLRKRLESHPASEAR

Row | Structure (SMILES) | pIC50 [1] | inhibition at 10 µM [1] | pIC50 [2] | inhibition at 10 µM [2] | ORP1 (FP) inhibition [1] | STARD1 (FP) inhibition [2]
1 | C[C@]12CC[C@@H]3C[C@H]1CC[C@@]21C(=Nc2ccc(Br)cc21)O3 (racemic) [Compound 15b] | 4.68 | 60% | < 4.10 | 27% |  | 
2 | CC12CCC3CC1CCC21C(=Nc2ccc(N4CCOCC4)cc21)O3 (racemic) [Compound 19a] | < 4.10 | 0% | < 4.10 | 20% |  | 
3 | CC12CCC3CC1CCC21C(=Nc2ccc(Br)cc21)O3 (single isomer, unassigned; (+)) [(+)-15b] | < 4.10 | 0% | < 4.10 | 7% |  | 
4 | CC12CCC3CC1CCC21C(=Nc2ccc(N4CCOCC4)cc21)O3 (single isomer, unassigned; (+)) [(+)-19a] | < 4.10 |  | < 4.10 |  | -3.3% | 12%
5 | CC12CCC3CC1CCC21C(=Nc2ccc(N4CCOCC4)cc21)O3 (single isomer, unassigned; (-)) [(−)-19a] | < 4.30 |  | < 4.10 |  | 15.0% | 30%
6 | C[C@@]12CC[C@H]3C[C@@H]1CC[C@]21C(=Nc2ccc(Br)cc21)O3 [(−)-15b] | 4.81 | 68.3% | 4.37 | 38% |  | 
7 | CC(C)Oc1ccc(C(=O)Nc2nc3c(s2)CN(C(=O)OC(C)(C)C)CC3)cc1 [Autogramin-2, reference compound] | 5.37 |  | < 4.10 |  | 57.5% | 22%
8 | Cc1c2c(nc3ccccc13)[C@@]1(C)CC[C@@H](O)C[C@H]1CC2 [Compound 2a] |  | 53.3% |  | 30% |  | 
9 | C[C@]12CC[C@@H](O)C[C@H]1CCc1c2nc2ccccc2c1-c1ccccc1 [Compound 2b] |  |  |  |  | 11.7% | -3.33%
10 | Cc1c2c(nc3cc(Br)ccc13)[C@@]1(C)CC[C@@H](O)C[C@H]1CC2 [Compound 2c] |  |  |  |  | 81.7% | 70%
11 | C[C@]12CC[C@@H](O)C[C@H]1CCc1c2nc2ccccc2c1-c1ccc(F)cc1 [Compound 2d] |  | 5% |  | -8% |  | 
12 | C[C@]12CC[C@@H](O)C[C@H]1CCc1c2nc2ccc(Cl)cc2c1-c1ccccc1 [Compound 2e] |  |  |  |  | 2.5% | -8%
13 | C[C@]12CC[C@@H](O)C[C@H]1CCc1c2[nH]c2ncccc12 [Compound 3] |  | -5.8% |  | -3.33% |  | 
14 | C[C@]12CC[C@@H](O)C[C@H]1CCC[C@]21Nc2ccccc2-n2cccc21 [Compound 4] |  | 5.8% |  | 35% | 30.0% | 20%
15 | C[C@]12CC[C@@H](O)C[C@H]1CCC[C@]21NC(=O)c2ccccc2N1 [Compound 5a] |  | -2.5% |  | -1.67% | 0.0% | 1.67%
16 | C[C@]12CC[C@@H](O)C[C@H]1CCC[C@]21NC(=O)c2ccc(F)cc2N1 [Compound 5b] |  |  |  | 3.33% | -7.5% | 1.67%
17 | COc1ccc2c(c1)C(=O)N[C@]1(CCC[C@@H]3C[C@H](O)CC[C@@]31C)N2 [Compound 5c] |  | 3.3% |  | 5% | -5.0% | -3.33%
18 | C[C@]12CC[C@@H](O)C[C@H]1CCc1nc3ccccc3nc12 [Compound 7a] |  | 16.7% |  | 23% |  | 
19 | Cc1cc2nc3c(nc2cc1C)[C@@]1(C)CC[C@@H](O)C[C@H]1CC3 [Compound 7b] |  | 0% |  | 12% |  | 
20 | C[C@]12CC[C@@H](O)C[C@H]1CCc1nc3cc(F)c(F)cc3nc12 [Compound 7c] |  |  |  |  | -5.0% | 12%
21 | C[C@]12CC[C@@H](O)C[C@H]1CCc1nc3cc(Cl)c(Cl)cc3nc12 [Compound 7d] |  |  |  |  | 1.7% | 17%
22 | C[C@]12CC[C@@H](O)C[C@H]1CCc1nc3cc(Br)c(Br)cc3nc12 [Compound 7e] |  |  |  |  | 5.0% | 13%
23 | C[C@]12CC[C@@H](O)C[C@H]1CCc1sc(N)nc12 [Compound 8a] |  | -9.2% |  | 5% |  | 
24 | Cc1nc2c(s1)CC[C@@H]1C[C@H](O)CC[C@]21C [Compound 8b] |  |  |  |  | -2.5% | 8%
25 | C[C@]12CC[C@@H](O)C[C@H]1CCc1sc(-c3cccnc3)nc12 [Compound 8c] |  |  |  |  | 5.8% | -1.67%
26 | COc1ccc(-c2nc3c(s2)CC[C@@H]2C[C@H](O)CC[C@]32C)cc1 [Compound 8d] |  | 66.7% |  | 42% |  | 
27 | C[C@]12CC[C@@H](O)C[C@H]1CCc1sc(-c3ccc(F)cc3)nc12 [Compound 8e] |  |  |  |  | 31.7% | 17%
28 | C[C@]12CC[C@@H](O)C[C@H]1CCc1[nH]c(-c3ccccc3)nc12 [Compound 9] |  | -0.8% |  | 10% |  | 
29 | C[C@]12CC[C@@H](O)C[C@H]1CCc1c2[nH]c2ccccc12 [Compound 10a] |  |  |  |  | 28.3% | 35%
30 | C[C@]12CC[C@@H](O)C[C@H]1CCc1c2[nH]c2ccc(Br)cc12 [Compound 10b] |  |  |  |  | 21.7% | -23%
